According to US20250098679A1, “HERBICIDAL PYRIDONE DERIVATIVES” (SYNGENTA CROP PROTECTION AG, priority 2021, published 2025):

Assays:
Type in all cases: in vivo
Conditions in all cases: evaluated after 13 days
Zea mays (ZEAMX) [1] = assay: Post-emergence Test, Zea mays (ZEAMX); parameters: key to percentage damage caused to the plant, ZEAMX (five-point scale): 5=81-100%, 4=61-80%, 3=41-60%, 2=21-40%, 1=0-20% damage
How it was run: (§1)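 Sown pots in a glasshouse (24/16 °C day/night, 14 h light, 65% humidity) were sprayed with compound in acetone/water (50:50) with 0.5% Tween 20, at 1000 g/ha unless otherwise stated. Damage was assessed 13 days after spraying and scored 1–5 (5=81-100%, 1=0-20%).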

[2] = test system: Ipomoea hederacea (IPOHE); assay: Pre-emergence Test, Ipomoea hederacea (IPOHE)
Zea mays (ZEAMX) [3] = assay: Pre-emergence Test, Zea mays (ZEAMX)
[4] = test system: Ipomoea hederacea (IPOHE); assay: Post-emergence Test, Ipomoea hederacea (IPOHE); parameters: key to percentage damage caused to the plant, IPOHE (five-point scale): 5=81-100%, 4=61-80%, 3=41-60%, 2=21-40%, 1=0-20% damage
How it was run: as §1

[5] = test system: Echinochloa crus-galli (ECHCG); assay: Pre-emergence Test, Echinochloa crus-galli (ECHCG)
Setaria faberi (SETFA) [6] = assay: Pre-emergence Test, Setaria faberi (SETFA)
[7] = test system: Amaranthus palmeri (AMAPA); assay: Pre-emergence Test, Amaranthus palmeri (AMAPA)
Setaria faberi (SETFA) [8] = assay: Post-emergence Test, Setaria faberi (SETFA); parameters: key to percentage damage caused to the plant, SETFA (five-point scale): 5=81-100%, 4=61-80%, 3=41-60%, 2=21-40%, 1=0-20% damage
How it was run: as §1

[9] = test system: Amaranthus retoflexus (AMARE); assay: Pre-emergence Test, Amaranthus retoflexus (AMARE)
[10] = test system: Amaranthus palmeri (AMAPA); assay: Post-emergence Test, Amaranthus palmeri (AMAPA); parameters: key: 5=81-100%, 4=61-80%, 3=41-60%, 2=21-40%, 1=0-20% damage
How it was run: as §1

[11] = test system: Amaranthus retoflexus (AMARE); assay: Post-emergence Test, Amaranthus retoflexus (AMARE); parameters: key to percentage damage caused to the plant, AMARE (five-point scale): 5=81-100%, 4=61-80%, 3=41-60%, 2=21-40%, 1=0-20% damage
How it was run: as §1

[12] = test system: Echinochloa crus-galli (ECHCG); assay: Post-emergence Test, Echinochloa crus-galli (ECHCG); parameters: key to percentage damage caused to the plant, ECHCG (five-point scale): 5=81-100%, 4=61-80%, 3=41-60%, 2=21-40%, 1=0-20% damage
How it was run: as §1

| SMILES | percentage damage caused to the plant, ZEAMX (five-point scale) (Zea mays (ZEAMX) [1]; 250 g/Ha) | percentage damage caused to the plant, ZEAMX (five-point scale) (Zea mays (ZEAMX) [1]; 1000 g/ha) | Pre-emergence Test IPOHE, percentage damage caused to the plant (five-point scale) ([2]; 1000 g/ha) | Pre-emergence Test ZEAMX, percentage damage caused to the plant (five-point scale) (Zea mays (ZEAMX) [3]; 1000 g/ha) | percentage damage caused to the plant, IPOHE (five-point scale) ([4]; 250 g/Ha) | percentage damage caused to the plant, IPOHE (five-point scale) ([4]; 1000 g/ha) | Pre-emergence Test ECHCG, percentage damage caused to the plant (five-point scale) ([5]; 1000 g/ha) | Pre-emergence Test SETFA, percentage damage caused to the plant (five-point scale) (Setaria faberi (SETFA) [6]; 1000 g/ha) | Pre-emergence Test AMAPA, percentage damage caused to the plant (five-point scale) ([7]; 1000 g/ha) | percentage damage caused to the plant, SETFA (five-point scale) (Setaria faberi (SETFA) [8]; 250 g/Ha) | percentage damage caused to the plant, SETFA (five-point scale) (Setaria faberi (SETFA) [8]; 1000 g/ha) | Pre-emergence Test AMARE, percentage damage caused to the plant (five-point scale) ([9]; 1000 g/ha) | percentage damage caused to the plant, AMAPA (five-point scale) ([10]; 250 g/Ha) | percentage damage caused to the plant, AMAPA (five-point scale) ([10]; 1000 g/ha) | percentage damage caused to the plant, AMARE (five-point scale) ([11]; 250 g/Ha) | percentage damage caused to the plant, AMARE (five-point scale) ([11]; 1000 g/ha) | percentage damage caused to the plant, ECHCG (five-point scale) ([12]; 250 g/Ha) | percentage damage caused to the plant, ECHCG (five-point scale) ([12]; 1000 g/ha) | also measured |
| --- | --- | --- | --- | --- | --- | --- | --- | --- | --- | --- | --- | --- | --- | --- | --- | --- | --- | --- | --- |
| CCn1c(Cn2ccc(OC)n2)cc(=O)c(C(=O)O)c1-c1ccc(Cl)c(Cl)c1 [Compound 38, 2-(3,4-dichlorophenyl)-1-ethyl-6-[(3-methoxypyrazol-1-yl)methyl]-4-oxo-pyridine-3-carboxylic acid] | 2 (2=21-40%) | 4 (4=61-80%) | 4 (4=61-80%) | 5 (5=81-100%) | 4 (4=61-80%) | 3 (3=41-60%) | 5 (5=81-100%) | 5 (5=81-100%) | 3 (3=41-60%) | 4 (4=61-80%) | 4 (4=61-80%) | 2 (2=21-40%) | 1 (1=0-20%) | 4 (4=61-80%) | 2 (2=21-40%) | 4 (4=61-80%) | 3 (3=41-60%) | 4 (4=61-80%) |  |
| CCn1c(Cn2nc(C(F)(F)F)cc2OC(F)F)cc(=O)c(C(=O)O)c1-c1ccc(Cl)c(Cl)c1 [Compound 151, 2-(3,4-dichlorophenyl)-6-[[5-(difluoromethoxy)-3-(trifluoromethyl)pyrazol-1-yl]methyl]-1-ethyl-4-oxo-pyridine-3-carboxylic acid] | 1 (1=0-20%) | 3 (3=41-60%) | 4 (4=61-80%) | 2 (2=21-40%) | 4 (4=61-80%) | 4 (4=61-80%) | 5 (5=81-100%) | 5 (5=81-100%) | 1 (1=0-20%) | 4 (4=61-80%) | 4 (4=61-80%) | 0 | 1 (1=0-20%) | 2 (2=21-40%) | 1 (1=0-20%) | 3 (3=41-60%) | 3 (3=41-60%) | 4 (4=61-80%) | Pre-emergence Test IPOHE, percentage damage caused to the plant (five-point scale) ([2]; 250 g/Ha (*)): 2 (2=21-40%); Pre-emergence Test ZEAMX, percentage damage caused to the plant (five-point scale) (Zea mays (ZEAMX) [3]; 250 g/Ha (*)): 2 (2=21-40%); Pre-emergence Test ECHCG, percentage damage caused to the plant (five-point scale) ([5]; 250 g/Ha (*)): 5 (5=81-100%); Pre-emergence Test SETFA, percentage damage caused to the plant (five-point scale) (Setaria faberi (SETFA) [6]; 250 g/Ha (*)): 5 (5=81-100%); Pre-emergence Test AMAPA, percentage damage caused to the plant (five-point scale) ([7]; 250 g/Ha (*)): 0; Pre-emergence Test AMARE, percentage damage caused to the plant (five-point scale) ([9]; 250 g/Ha (*)): 0 |
